Key:
Assay type in all cases: cell-based, human
A549 cells [1] = test: Cytofluorometric assessment of cell death (DiOC6(3)/PI co-staining); conditions: A549 cells
Protocol: Unless otherwise specified, chemicals were purchased from Sigma-Aldrich (St. Louis, USA), culture media and supplements for cell culture from Gibco-Invitrogen (Carlsbad, USA) and plasticware from Corning (Corning, USA). […] Orlistat (Xenical®) was obtained from Roche (Basel, Switzerland). […] Undissolved material was removed by two sequential rounds of centrifugation at 12,000 G (5 min, room temperature, RT), supernatants were collected and stored at −80° C. under protection from light until use. In low-throughput experiments, all cell lines were treated with 2.5 mM pyridoxine (PN), exception made for A549 cells that received 5 mM PN.
To avoid depleting the siRNA library of selected sequences, siRNAs for validation experiments were purchased as custom molecules from Sigma-Aldrich. For low-throughput experiments, (see below for the transfection protocols employed in the siRNA screen), siRNA were transfected in A549 cells with Oligofectamine™ reagent (Invitrogen), following the manufacturer's instructions. Transfection with a non-targeting siRNA (siUNR) was employed as a negative control condition. Forty-eight hours after transfection, siRNA-mediated target downregulation was assessed by immunoblotting (see below).
All cytofluorometric determinations were carried out a FACSCalibur or a FACScan cytofluorometer (BD Biosciences, San Jose, USA) equipped with a 70 μm nozzle.
First line statistical analysis of cytofluorometric results was performed by using the CellQuest™ software (BD Biosciences), by gating on the events characterized by normal forward scatter and side scatter parameters. Apoptosis- and cell cycle-related data were further analyzed with Microsoft Excel (Microsoft Co., Redmond, USA) and statistical significance was assessed by means of two-tailed Student's t test (p<0.05).

A549 cells [2] = test: Targeted metabolomic studies (ATP, ADP, AMP, GSH; RRLC-MS); conditions: A549 cells incubated for 24 h with 5 mM GSH
Protocol: A549 cells were left untreated or treated with 25 μM CDDP alone or in combination with 5 mM PN, for 24 h. Thereafter, both attached (living) and detached (dying/dead) cells were harvested, washed once in cold PBS and pelleted (800 G for 5 min). Pellets were resuspended in 200 μL deionized water, briefly vortexed and sonicated. 800 μl ice-cold methanol was added, and samples were kept in ice for 15 min, vortexed and centrifuged at 13,000 G for 10 min at 4° C. Supernatants were dried in a SpeedVac drier (Thermo Scientific-Pierce) and stored at −80° C. until analysis. Pellets were resuspended in 150 μL 98:2 water/acetonitrile immediately before analytical determinations (see below).
ATP, ADP, AMP and GSH were quantified on a Rapid Resolution Liquid Chromatography (RRLC) 1200SL system coupled to a 6410 Triple Quadripole (QQQ) mass spectrometer (both from Agilent Technologies). For nucleotides, RRLC was performed on 150×2.1 mm, 3.5 μM Eclipse Plus columns (Agilent Technologies) with water containing 4 mM dimethylhexylamine (DMHA) plus 0.01% (v/v) acetic acid in channel A and acetonitrile in channel B, in gradient mode at a flow rate of 0.2 mL/min: t=0 min 2% B; t=9 min 32% B; t=10 min 95% B; T=12 min 95% B, re-equilibration time=6 min. Mass spectrometry was performed in positive electrospray ionization mode at +4 kV on the QQQ system operating in MRM mode. MRM transitions were optimized with direct infusions of ATP, ADP, and AMP standards with direct infusion, and four transitions were recorded for each compounds. Parent ions were adduct ions of DMHA and also proton adducts:
For GSH, RRLC was performed on a 150×2.1 mm, 3.5 μM Stable Bond AQ column (Agilent Technologies) with water containing 0.2% (v/v) acetic acid in channel A and methanol in channel B, in gradient mode at a flow rate of 0.3 mL/min: t=0 min 2% B; t=8 min 95% B; t=9 min 95% B; re-equilibration time=6 min. Mass spectrometry was performed as above. MRM transitions were optimized with direct infusion of GSH standards.
Data collection and analysis were performed with the MassHunter software (Agilent Technologies).

A549 cells [3] = test: Intracellular levels of CDDP in cell lysates; conditions: 24 h, 25 μM CDDP alone or with PN and/or GSH, normalized to protein content
Protocol: (E,F) Intracellular levels of CDDP (normalized to protein content) in lysates from untransfected A549 cells (D) or A549 cells transfected with a PDXK-targeting siRNA (E), treated for 24 h with 25 μM CDDP alone or in combination with PN and/or GSH. Mean±SEM (n=6). *=p<0.05 (Studen's t test), as compared to untransfected (D) or siUNR transfected (E) cells treated with CDDP only. n.s.=non significant (Student's t test), as compared to cells treated with the same concentration of GSH (D) or to siPDXK-transfected cells treated with CDDP only (E).

Row | SMILES | epistatic interaction on CDDP-induced cell death, ZDHHC9 inhibition (2-bromopalmitate) combined with IL6R blockade (extracellular antibody) (A549 cells [1]; followed by CDDP, DiOC6(3)/PI co-staining) | protection against the cytotoxic effect of CDDP plus PN (A549 cells [1]; 25 or 75 μM CDDP plus PN) | apoptosis-inducing effect of CDDP (DiOC6(3)/PI co-staining or DNA loss, sub-G1 peak) (A549 cells [1]; CDDP irrespective of the presence of PN) | intracellular GSH levels upon extracellular GSH (A549 cells [2]) | intracellular accumulation of CDDP (A549 cells [3])
1 | CCCCCCCCCCCCCCC(Br)C(=O)O (centres unmarked) [2-bromopalmitate] | no significant epistatic interaction | – | – | – | –
2 | N[C@@H](CCC(=O)N[C@@H](CS)C(=O)NCC(=O)O)C(=O)O [GSH, glutathione] | – | protected cells against the cytotoxic effect of CDDP plus PN | blocked the apoptosis-inducing effect of CDDP | had no significant impact on intracellular GSH levels | strongly inhibited the accumulation of CDDP within the cells
